In ChEMBL document CHEMBL1137823, “Building predictive models for protein tyrosine phosphatase 1B inhibitors based on discriminating structural features by reassembling medicinal chemistry building blocks” (J Med Chem, 2004):

Target: T1, Tyrosine-protein phosphatase non-receptor type 1 (Homo sapiens, UniProt P18031)
T1 sequence (P18031 whole entry): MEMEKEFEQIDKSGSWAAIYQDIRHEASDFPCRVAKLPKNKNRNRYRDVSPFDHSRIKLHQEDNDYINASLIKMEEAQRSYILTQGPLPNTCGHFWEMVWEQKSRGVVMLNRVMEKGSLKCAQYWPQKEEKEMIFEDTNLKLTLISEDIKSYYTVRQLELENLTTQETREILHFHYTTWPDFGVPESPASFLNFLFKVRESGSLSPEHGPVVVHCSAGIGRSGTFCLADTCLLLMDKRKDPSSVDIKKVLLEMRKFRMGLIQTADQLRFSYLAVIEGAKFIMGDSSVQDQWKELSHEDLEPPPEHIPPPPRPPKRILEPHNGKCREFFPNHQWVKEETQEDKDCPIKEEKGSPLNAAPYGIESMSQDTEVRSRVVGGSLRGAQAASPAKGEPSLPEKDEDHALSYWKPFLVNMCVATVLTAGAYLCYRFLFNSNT
Experiment: Concentration required for 50% inhibition of tyrosine phosphatase 1B

IC50	Compound
52.5 nM	O=C(O)[C@H](Cc1ccccc1)Oc1ccc(-c2ccc(-c3c(Cc4ccccc4)sc4ccccc34)cc2)cc1-c1ccc(Cl)cc1
12.6 nM	Cc1oc(-c2ccc(C(F)(F)F)cc2)nc1-c1ccc(-c2ccc(O)cc2)cc1
191 nM	Cc1oc(-c2ccc(C(F)(F)F)cc2)nc1-c1ccc2c(Br)c(OC(Cc3ccccc3)C(=O)O)ccc2c1 (stereo unspecified)
912 nM	CCCCc1oc2ccccc2c1C(O)c1ccc2ccc(OCn3cnnn3)c(Br)c2c1 (stereo unspecified)
38 nM	O=C(O)[C@@H](Cc1ccccc1)Oc1c(Br)cc(-c2ccc(-c3c(Cc4ccccc4)oc4ccccc34)cc2)cc1Br
38.9 nM	Cc1cc(-c2ccc(-c3c(Cc4ccccc4)oc4ccccc34)cc2)cc(C)c1OS(=O)(=O)c1ccc(C(=O)O)c(O)c1
10 nM	Cc1oc(-c2ccc(C(F)(F)F)cc2)nc1-c1cccc(-c2ccc(O)cc2)c1
52.5 nM	CCCC[C@@H](Oc1c(Br)cc(-c2ccc(-c3c(Cc4ccccc4)oc4ccccc34)cc2)cc1Br)C(=O)O
31.6 nM	CCc1oc2ccccc2c1-c1ccc(-c2ccc(O)cc2)cc1
214 nM	O=C(O)[C@@H](Cc1ccccc1)Oc1ccc(-c2ccc(-c3nc4cccnc4n3Cc3ccccc3)cc2)cc1
776 nM	CCCCc1oc2ccccc2c1Cc1ccc2ccc(O)cc2c1
832 nM	CCCc1cc(-c2ccc(-c3c(Cc4ccccc4)oc4ccccc34)cc2)ccc1O[C@@H](Cc1ccccc1)C(=O)O
288 nM	O=C(O)C(Cc1ccccc1)Oc1ccc(-c2ccc(-c3coc4ccccc34)cc2)cc1 (stereo unspecified)
437 nM	O=C(O)[C@@H](Cc1ccccc1)Oc1ccc(-c2ccc(-c3nc4ccccc4n3Cc3ccccc3)cc2)cc1
275 nM	Oc1ccc(-c2ccc(-c3c(Cc4ccccc4)oc4ccccc34)cc2)cc1Br
912 nM	CCCCc1oc2ccccc2c1C(O)c1ccc2cc(O)ccc2c1 (stereo unspecified)
166 nM	CCCCc1oc2ccccc2c1-c1ccc(-c2ccc(OC)cc2)cc1
589 nM	COC(=O)[C@H](Cc1ccccc1)Oc1ccc(-c2ccc(-c3c(Cc4ccccc4)oc4ccccc34)cc2)cc1
407 nM	O=C(O)C(Cc1ccccc1)Oc1ccc(-c2ccc(-c3c(Br)oc4ccccc34)cc2)cc1 (stereo unspecified)
479 nM	Oc1c(Br)cc(-c2ccc(-c3c(Cc4ccccc4)oc4ccccc34)cc2)cc1Br
3.98 nM	CCCCc1oc2ccccc2c1C(=O)c1ccc(-c2ccc(O)cc2)cc1
3.16 nM	CCCCc1oc2ccccc2c1C(=O)c1ccc2cc(O)ccc2c1
63.1 nM	Cc1oc(-c2ccc(C(F)(F)F)cc2)nc1-c1cccc(-c2ccc(OCC(=O)O)cc2)c1
603 nM	O=C(O)[C@H](Cc1ccccc1)Oc1ccc(-c2ccc(-c3c(Cc4ccc(F)cc4)oc4ccccc34)cc2)cc1
39.8 nM	O=C(O)c1ccc(S(=O)(=O)Oc2ccc(-c3ccc(-c4c(Cc5ccccc5)oc5ccccc45)cc3)cc2[N+](=O)[O-])cc1O
20 nM	Oc1ccc(-c2ccc(-c3coc4ccccc34)cc2)cc1
